Experimental data: patent US12623988B2, “Scaleable preparation of polyketides” (The Regents of the University of California, priority 2019, dated 2026)
Entries after “also recorded” stand apart in the source; their conditions may differ. Read-outs that look alike come from different tables or passages of the source.

Columns and labels:
[1] = rcm bond, Hoveyda-Grubbs 2nd generation catalyst, toluene, 110.0 °C, 5.33 h
[2] = tested on: HCT-116 cells; test: Cell viability assay for 1 and 1a-1c in HCT-116 cells (CellTiter Aqueous One, GI50); type: cell-based, human; details: 0 to 1000 nM, 72 h, result in words, compared to 1
Protocol: Cell culture. The HCT-116 cell line was cultured in McCoy's 5a (Life Technologies) supplemented with 10% fetal bovine serum (FBS), 2 mM L-glutamine, and 100 U mL^−1 of penicillin and 100 μg mL^−1 of streptomycin at 37° C. in an atmosphere of 5% CO2. Both the HeLa and Caov3 cell lines were maintained in DMEM (Life Technologies) supplemented with 10% FBS, 2 mM L-glutamine, and 100 U mL^−1 of penicillin and 100 μg mL^−1 of streptomycin at 37° C. in an atmosphere of 5% CO2.
Cell Viability Assays for 1a-1c. HCT-116 cells were cultured in McCoy's 5a (Life Technologies) supplemented with 10% fetal bovine serum (FBS), 2 mM L-glutamine, 100 U mL^−1 penicillin and 100 μg mL^−1 streptomycin at 37° C. in an atmosphere of 5% CO2. HCT-116 cells were plated at […] cells/well in McCoy's 5a containing 10% FBS. Cells were cultured for 24 h, pretreated with 1 or 1a-1c in DMSO ranging from 0 to 1000 nM for 72 h (cell media contained <0.5% DMSO), and then washed with PBS (2×100 μL). 100 μL of PBS was added to each well, followed by 20 μL of CellTiter Aqueous One Solution (Promega). After 2 h at 37° C., absorbance readings were taken at 490 nm (test wavelength) and 690 nm (reference wavelength). GI50 values were calculated in Prism (GraphPad) using at least three biological replicates.

[3] = estimated, reference (6); cited from earlier work
[4] = Storage stability of synthetic fragments and intermediates; details: for stability at ambient conditions: storage

COc1ccc(C2O[C@H]3/C=C/[C@H](C)[C@@H](/C(C)=C/I)OC(=O)C[C@H](O[Si](C)(C)C(C)(C)C)CC[C@@]3(C)O2)cc1 (stereo partly drawn)
ring closure, yield of all isomers ([1]; from C=C[C@@H]1OC(c2ccc(OC)cc2)O[C@]1(C)CC[C@H](CC(=O)O[C@H](/C(C)=C/I)[C@@H](C)C=C)O[Si](C)(C)C(C)(C)C, 5.37 mM): 50%
ring closure, yield of all isomers ([1]; from C=C[C@@H]1OC(c2ccc(OC)cc2)O[C@]1(C)CC[C@H](CC(=O)O[C@H](/C(C)=C/I)[C@@H](C)C=C)O[Si](C)(C)C(C)(C)C): 51%

COc1ccc(C2O[C@H]3C=C[C@H](C)[C@@H](/C(C)=C/I)O[13C](=O)C[C@H](O[Si](C)(C)C(C)(C)C)CC[C@@]3(C)O2)cc1 (stereo partly drawn)
ring closure, yield of all isomers ([1]; from C=C[C@@H]1OC(c2ccc(OC)cc2)O[C@]1(C)CC[C@H](C[13C](=O)O[C@H](/C(C)=C/I)[C@@H](C)C=C)O[Si](C)(C)C(C)(C)C, 6.52 mM): 50%

CC[C@H](OC)[C@@H](C)[C@H]1O[C@@H]1[C@@H](O)[C@H](C)/C=C/C=C(\C)[C@H]1OC(=O)C[C@@H](O)CC[C@@](C)(O)[C@@H](OC(C)=O)/C=C/[C@@H]1C [1a, 3S,17S-FD-895]
activity (GI50 screening) in human colorectal tumor HCT-116 cells [2]: compromised activity

CC[C@H](OC)[C@@H](C)[C@H]1O[C@@H]1[C@@H](O)[C@H](C)/C=C/C=C(\C)[C@H]1OC(=O)C[C@H](O)CC[C@@](C)(O)[C@H](OC(C)=O)/C=C/[C@@H]1C [1b, 7R,17S-FD-895]
activity (GI50 screening) in human colorectal tumor HCT-116 cells [2]: compromised activity; also recorded: lack in activity

CC[C@H](OC)[C@@H](C)[C@H]1O[C@@H]1[C@@H](O)[C@H](C)/C=C/C=C(\C)[C@H]1OC(=O)C[C@H](O)CC[C@@](C)(O)[C@@H](OC(C)=O)/C=C/[C@@H]1C [compound 1, 17S-FD-895]
human maximum tolerated dose (MTD) [3]: ~4 mg/m^2

CC(=O)O[C@H]1/C=C/[C@H](C)[C@@H](/C(C)=C/I)OC(=O)C[C@H](O)CC[C@@]1(C)O [compound 2, (2S,3S,6S,7R,10R,E)-7,10-dihydroxy-2-((E)-1-iodoprop-1-en-2-yl)-3,7-dimethyl-12-oxooxacyclododec-4-en-6-yl acetate]
stability at ambient conditions [4]: stable over six months at ambient conditions

CC[C@H](OC)[C@@H](C)/C=C/CO [compound 13, (4S,5S,E)-5-Methoxy-4-methylhept-2-en-1-ol]
storage stability at 4° C. ([4]; stored at 4° C.): over 2 years

C#C[C@@H](C)[C@H](O)[C@H]1O[C@@H]1[C@H](C)[C@H](CC)OC [compound 15, (1S,2R)-1-((2R,3R)-3-((2R,3S)-3-methoxypentan-2-yl)oxiran-2-yl)-2-methylbut-3-yn-1-ol]
stability at ambient conditions [4]: stable over six months at ambient conditions
